In PMC5086919, “Antileukemic Scalarane Sesterterpenoids and Meroditerpenoid from Carteriospongia (Phyllospongia) sp., Induce Apoptosis via Dual Inhibitory Effects on Topoisomerase II and Hsp90” (Scientific Reports, 2016):
≈ marks a conversion by molar mass, not a printed value.

Legend:
Sup-T1 cells = experiment: MTT antiproliferative assay, lymphoma Sup-T1 cells; conditions: Homo sapiens, SUP-T1, 72 h, read-out: IC50, cytotoxicity, Lymphoma Sup-T1
Ca9-22 cells = experiment: MTT antiproliferative assay, oral Ca9-22 cells; conditions: Homo sapiens, Ca9-22, 72 h, read-out: IC50, cytotoxicity, Oral Ca9-22
Description: (§3) Several cancer cell lines including leukemia K562, Molt 4, and HL 60 cells, prostate cancer LNCaP cells, colon cancer DLD-1 cells and breast cancer T-47D cells were used to evaluate the antiproliferative activity.
(§4) The cell lines were obtained from the American Type Culture Collection (ATCC, Manassas, VA, USA). […] Dimethyl sulfoxide (DMSO), 3-(4,5-dimethylthiazol-2-yl)-2,5-diphenyl-tetrazolium bromide (MTT) and all other chemicals were purchased from Sigma-Aldrich (St. Louis, MO, USA).

Molt 4 cells [1] = experiment: Intracellular Ca2+ accumulation, Fluo 3 flow cytometry; assay type: cell-based, human; conditions: 0.0625 μg/mL
Description: (§1) Oxidative stress is manifested by ROS overexpression and cannot be balanced by the available antioxidant machinery. Compound 1 can damage the integrity of mitochondria, which are the major production sites of the superoxide anion, […]. The induction of the intracellular formation of ROS by 1 was determined with a carboxyl derivative of fluorescein, carboxy-H2DCFDA dye using flow cytometric analysis. […] In addition, ROS generation could induce ER stress leading to mitochondria-related apoptosis. To further investigate if ER stress is involved in the apoptotic effect induced by 1, Western blot analysis was used to determine the expression of ER stress-related proteins. […] Furthermore, the effect of 1 on the release of intracellular Ca^2+, was evaluated using fluorescent calcium indicator, Fluo 3. […] The induction of the typical executor caspases-3 and −7, as well as γH2AX, was also observed using Western blot analysis (Fig. 7D). To confirm the induction of DNA damage by 1 in Molt 4 cells, a comet assay under neutral electrophoresis condition was utilized. The effect of 1 (0.0625 μg/mL) at different time intervals (0, 3, 6 and 9 h) on the level of nuclear DNA integrity was determined. […] The DNA migration was represented by the induction of DSBs in a time-dependent increase, as indicated by the abnormal tails’ sizes in the comet assay.
(§2) These assays were performed as described previously. […] In brief, the treated cells were labeled with a specific fluorescent dye for 30 min. After labeling, cells were washed with PBS and resuspended in PBS at a concentration of 1 × 10^6 cells/mL before analysis via flow cytometry.

Molt 4 cells [2] = experiment: MMP disruption, JC-1 staining flow cytometry; assay type: cell-based, human; conditions: 0, 0.0625, 0.125 and 0.25 μg/mL, 24 h
Description: as §2

T-47D cells = experiment: MTT antiproliferative assay, breast cancer T-47D cells; conditions: Homo sapiens, T47D, 72 h, read-out: IC50, cytotoxicity, Breast T-47D
Description: as §3, §4

Molt 4 cells [3] = experiment: ROS generation, carboxy-H2DCFDA flow cytometry; assay type: cell-based, human; conditions: 0.0625 μg/mL
Description: as §1, §2

CC[C@@]1(C)CCC[C@]2(C)[C@H]3C[C@@H](OC(=O)C[C@@H](C)O)[C@]4(C)[C@@H](C=O)C(C(C)=O)=CC[C@H]4[C@]3(C)CC[C@@H]12 (relative stereo) [Compound 1, 12β-(3′β-hydroxybutanoyloxy)-20,24-dimethyl-24-oxo-scalara-16-en-25-al]
IC50 (Sup-T1 cells): 0.13 µg/mL (≈ 0.26 µM) | IC50 (Ca9-22 cells): 0.1 µg/mL (≈ 0.2 µM) | increase in intracellular Ca2+ accumulation compared to MFI of control (Molt 4 cells [1]; 0.5 h): 1.03 folds | increase in intracellular Ca2+ accumulation compared to MFI of control (Molt 4 cells [1]; 1 h): 1.05 folds | increase in intracellular Ca2+ accumulation compared to MFI of control (Molt 4 cells [1]; 2 h): 1.06 folds | increase in intracellular Ca2+ accumulation compared to MFI of control (Molt 4 cells [1]; 3 h): 1.37 folds | increase in intracellular Ca2+ accumulation compared to MFI of control (Molt 4 cells [1]; 6 h): 2.41 folds | increase in intracellular Ca2+ accumulation compared to MFI of control (Molt 4 cells [1]; 18 h): 1.06 folds | mitochondrial membrane potential (Molt 4 cells [2]): disruption in mitochondrial membrane potential | IC50 (T-47D cells): 2.19 µg/mL (≈ 4.37 µM) | increase in ROS levels compared with MFI of control (Molt 4 cells [3]; 0.5 h): 2.09 fold | increase in ROS levels compared with MFI of control (Molt 4 cells [3]; 1 h): 1.51 fold | increase in ROS levels compared with MFI of control (Molt 4 cells [3]; 2 h): 1.06 fold | increase in ROS levels compared with MFI of control (Molt 4 cells [3]; 3 h): 1.01 fold
